Measurements as given in patent US20250025451A1, “TREATMENT OF CANCER WITH KDM4 INHIBITORS” (Celgene Corporation, priority 2021, published 2025).
pIC50: −log10 of the molar value. Several values for one entry are separate records, joined by “and”; a condition that tells them apart may be missing. Equal values may be shown once. Read-outs that look alike come from different tables or passages of the source.

Assays:
[1] = system: SU60 patient-derived colorectal cancer xenograft; test: in vivo efficacy, SU60 patient-derived colorectal cancer xenograft model; settings: SU60 CRC PDX; for % TGI: Day 19; for Median Tumor Volumes Diff.: Day 19 minus Day 1
Protocol: (§1) The therapeutic in vivo efficacy of Compound 1 was evaluated in SU60 colorectal cancer, KYSE-150 esophageal cancer, COH70 triple-negative breast cancer, GXA-3036 gastric adenocarcinoma and OCI-LY19 Diffuse Large B-Cell Non-Hodgkin's Lymphoma xenograft models. In all studies, efficacy was determined based on percent tumor growth inhibition (TGI), differences in mean tumor growth, and statistical assessment of differences in net tumor volume distributions on the day of TGI analysis between control and treated animals. Tolerability was assessed based on differences in mean body weights between control and treated animals over the course of the study.
The in vivo therapeutic efficacy and tolerability of Compound 1, administered orally as the free acid form in a vehicle comprised of 50% polyethylene glycol 400 (PEG 400) and 50% PBS (pH 9), was evaluated in the SU60 CRC PDX model established in female non-obese diabetic/severe combined immunodeficiency (NOD/SCID) gamma (NSG) mice. Each mouse was inoculated subcutaneously in the abdomen with 2×10^6 SU60 tumor cells (0.1 ml) suspended in Matrigel. When the average tumor size reached ˜270 mm3, test animals were randomized into 6 groups consisting of 8 mice per group and treatments were initiated. Control mice received 50% PEG 400 and 50% PBS (pH 9) vehicle PO QD×7. Treated mice received Compound 1 in vehicle PO at 20 or 10 mg/kg QD×7, at 20 mg/kg QOD, at 23 mg/kg 3 on/4 off, or at 14 mg/kg at 5 on/2 off. TGI was determined on Day 19 as (1−Diff treated/Diff control)×100. The difference in mean net tumor volumes on the day of TGI analysis for treated versus control animals was evaluated statistically using one-way analysis of variance (ANOVA) followed by Dunnett's multiple comparisons test. Adjusted p-values are shown where a calculated probability (p)≤0.05 was considered statistically significant. Individual tumors were measured twice weekly in two dimensions using a caliper, and the tumor volumes (TV) in mm3 were calculated using the formula: TV=0.5 (l×w×h), where l, w, and h are the tumor length, width, and height in mm, respectively; Mean tumor volumes±standard error of the mean (SEM) were calculated and plotted versus days of dosing (FIG. 10 left panel). Body weights were measured twice weekly. Body weights±SEM were calculated and plotted versus days of dosing (FIG. 10 right panel).

[2] = system: colorectal cancer PDX models; test: culture-based viability inhibition assay, colorectal cancer PDX models; assay type: cell-based; settings: for pIC50: read-out: IC50 (range over sensitive models); for Sensitive to Compound 1 (models sensitive/tested): sensitive = IC50<1 μM
Protocol: A panel of 13 colorectal cancer PDX models and 6 colorectal cancer organoid PDX models were tested for their sensitivity to Compound 1 in culture-based viability inhibition assays. The MSI-H status of the studied colorectal cancer cell lines and their respective mutations of the MMR path genes are shown in FIG. 19.

[3] = system: KYSE-150 human esophageal cancer xenograft; assay type: in vivo; settings: for Median Tumor Volumes Day 21: KYSE-150 CDX Study #2, female NOD/SCID mice; for % TGI / Median Tumor Volumes Diff.: KYSE-150 Study #2; for % TGI: Day 21; for Median Tumor Volumes Diff.: Day 21 minus Day 1
Protocol: as §1
Study #2—The in vivo therapeutic efficacy and tolerability of Compound 1, administered orally as the lysine salt suspended in a vehicle comprised of 10% PEG 400 and 90% of 0.5% MC, was evaluated in the KYSE-150 ESCC CDX model established in female NOD/SCID mice. Each mouse was inoculated subcutaneously in the right flank with 1×10^7 KYSE-150 tumor cells (0.1 ml) suspended in 50% Matrigel. When the average tumor size reached ˜153 mm3, test animals were randomized into 4 groups consisting of 8 mice per group and treatments were initiated. Control mice received 10% PEG 400 and 90% of 0.5% MC vehicle PO QDx21. Treated mice received the Compound 1 lysine salt form suspended in vehicle at 10, 15, or 20 mg/kg on the same schedule. TGI was determined on Day 21 as (1−Difftreated/Diffcontrol)×100. Individual tumors were measured twice weekly in two dimensions using a caliper, and the tumor volumes (TV) in mm3 were calculated using the formula: TV=0.5 a×b2, where a and b are the long and short tumor diameters in mm, respectively; Mean tumor volumes±SEM were calculated and plotted versus days of dosing (FIG. 12 left panel). Body weights were measured twice weekly. Body weights±SEM were calculated and plotted versus days of dosing (FIG. 12 right panel).
The difference in mean net tumor volumes on the day of TGI analysis for treated versus control animals was evaluated statistically using one-way ANOVA followed by Dunnetts multiple comparisons test. Adjusted p-values are shown where a calculated probability (p)≤0.05 was considered statistically significant.

[4] = system: human cancer cell lines; test: apoptosis in human cancer cell lines; assay type: cell-based
[5] = 14 mg/kg (70 weekly) PO 5 on/2 off
[6] = 23 mg/kg (69 weekly) PO 3 on/4 off
[7] = MSI colorectal cancer PDX models
[8] = MSS colorectal cancer PDX models

Compound: CC(C)c1ccc(N(C)c2ccc3c(c2)OCC[C@H]3CNc2cnccc2C(=O)O)cc1 [Compound 1, 3-({[(4R)-7-{methyl[4-(propan-2-yl)phenyl]amino}-3,4-dihydro-2H-1-benzopyran-4-yl]methyl}amino)pyridine-4-carboxylic acid]
- tolerability (mean body weight changes) ([1]; female NSG mice, all regimens, over the course of the study): well-tolerated
- Median Tumor Volumes Day 19 ([1]; female NSG mice, free acid 10 mg/kg (70 weekly) PO QD x7): 1151 mm^3
- Median Tumor Volumes Day 19 ([1]; female NSG mice, free acid 14 mg/kg (70 weekly) PO 5 on/2 off): 1300 mm^3
- Median Tumor Volumes Day 19 ([1]; female NSG mice, free acid 20 mg/kg (70 weekly) PO QOD): 1527 mm^3
- Median Tumor Volumes Day 19 ([1]; female NSG mice, free acid 20 mg/kg (140 weekly) PO QD x7): 767 mm^3
- Median Tumor Volumes Day 19 ([1]; female NSG mice, free acid 23 mg/kg (69 weekly) PO 3 on/4 off): 1121 mm^3
- % TGI ([1]; 10 mg/kg (70 weekly) PO QD x7): 48%
- Median Tumor Volumes Diff. ([1]; 10 mg/kg (70 weekly) PO QD x7): 901 mm^3
- % TGI [1, 5]: 42%
- Median Tumor Volumes Diff. [1, 5]: 1019 mm^3
- % TGI ([1]; 20 mg/kg (70 weekly) PO QOD): 29%
- Median Tumor Volumes Diff. ([1]; 20 mg/kg (70 weekly) PO QOD): 1242 mm^3
- % TGI ([1]; 20 mg/kg (140 weekly) PO QD x7): 71%
- Median Tumor Volumes Diff. ([1]; 20 mg/kg (140 weekly) PO QD x7): 506 mm^3
- % TGI [1, 6]: 52%
- Median Tumor Volumes Diff. [1, 6]: 833 mm^3
- pIC50 [2, 7]: 7.85 to 9.00
- Sensitive to Compound 1 (models sensitive/tested) [2, 7]: 5 out of 5 and 5/5
- pIC50 [2, 8]: 6.57 to 8.52
- Sensitive to Compound 1 (models sensitive/tested) [2, 8]: 4 out of 8 and 4/8
- Median Tumor Volumes Day 21 ([3]; lysine salt 10 mg/kg (free acid equivalents) PO QD x21): 1027 mm^3
- Median Tumor Volumes Day 21 ([3]; lysine salt 15 mg/kg (free acid equivalents) PO QD x21): 620 mm^3
- Median Tumor Volumes Day 21 ([3]; lysine salt 20 mg/kg (free acid equivalents) PO QD x21): 469 mm^3
- % TGI ([3]; 10 mg/kg PO QD x21): 54%
- Median Tumor Volumes Diff. ([3]; 10 mg/kg PO QD x21): 876 mm^3
- % TGI ([3]; 15 mg/kg PO QD x21): 76%
- Median Tumor Volumes Diff. ([3]; 15 mg/kg PO QD x21): 468 mm^3
- % TGI ([3]; 20 mg/kg PO QD x21): 84%
- Median Tumor Volumes Diff. ([3]; 20 mg/kg PO QD x21): 315 mm^3
- effect on apoptosis [4]: induces apoptosis
